{
  "source": "paper PMC4965777",
  "about": "“Molecular characterization of Tps1 and Treh genes in Drosophila and their role in body water homeostasis” (Scientific Reports, 2016)",
  "format_in_all_cases": "biochemical",
  "key": {"[1]": {"target": "T1, cTreh (Drosophila melanogaster, UniProt A4UZR3)", "T1 construct": "gene Treh; cytoplasmic isoform without signal peptide, N-terminal His-tag (pET28a), E. coli BL21(DE3), Ni-NTA", "T1 sequence (A4UZR3 1-560)": "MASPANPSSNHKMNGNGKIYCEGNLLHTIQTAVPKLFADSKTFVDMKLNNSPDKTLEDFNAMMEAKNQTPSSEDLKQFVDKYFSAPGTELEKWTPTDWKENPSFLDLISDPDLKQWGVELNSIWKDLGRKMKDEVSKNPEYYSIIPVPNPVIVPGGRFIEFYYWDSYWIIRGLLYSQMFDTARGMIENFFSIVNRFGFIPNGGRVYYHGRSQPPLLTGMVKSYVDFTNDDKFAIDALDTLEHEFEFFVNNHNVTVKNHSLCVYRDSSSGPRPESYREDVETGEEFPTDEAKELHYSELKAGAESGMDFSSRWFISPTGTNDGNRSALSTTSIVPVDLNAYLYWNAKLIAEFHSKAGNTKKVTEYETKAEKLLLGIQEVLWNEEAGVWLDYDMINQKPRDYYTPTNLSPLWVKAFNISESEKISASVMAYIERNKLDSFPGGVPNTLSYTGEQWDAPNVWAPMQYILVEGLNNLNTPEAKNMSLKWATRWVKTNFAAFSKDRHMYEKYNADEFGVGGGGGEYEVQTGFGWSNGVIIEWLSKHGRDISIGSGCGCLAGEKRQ", "assay": "trehalose hydrolysis; glucose released determined with glucose assay kit", "conditions": "5 μg trehalose; 0.12 pmol His-cTreh in 15 μl PBS; 30 °C, 2 h"}, "[2]": {"target": "T2, CG5171 (Drosophila melanogaster, UniProt Q9VM19)", "T2 construct": "gene Tpp; N-terminal His-tag (pET28a), E. coli BL21(DE3), Ni-NTA", "T2 sequence (Q9VM19 1-273)": "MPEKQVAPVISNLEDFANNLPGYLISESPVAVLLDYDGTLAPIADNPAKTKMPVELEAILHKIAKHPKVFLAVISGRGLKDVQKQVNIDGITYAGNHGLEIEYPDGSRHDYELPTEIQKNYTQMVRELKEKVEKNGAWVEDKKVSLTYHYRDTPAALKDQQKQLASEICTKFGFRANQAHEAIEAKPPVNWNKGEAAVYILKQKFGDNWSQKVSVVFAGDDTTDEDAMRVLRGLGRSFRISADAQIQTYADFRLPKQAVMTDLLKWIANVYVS", "assay": "dephosphorylation; trehalose released determined with trehalase and glucose assay kit", "conditions": "0.5 mM T6P; 5 mM MgCl2; PBS-type phosphate buffer pH 7.4; 30 °C; 0.02 nmol enzyme in 30 μl"}, "[3]": {"target": "T3, Tps1-TPP (Drosophila melanogaster, UniProt Q9Y119)", "T3 construct": "C-terminal TPP domain only (borders not in text), N-terminal His-tag (pET28a), E. coli BL21(DE3), Ni-NTA", "T3 sequence (Q9Y119 entry or part of it)": "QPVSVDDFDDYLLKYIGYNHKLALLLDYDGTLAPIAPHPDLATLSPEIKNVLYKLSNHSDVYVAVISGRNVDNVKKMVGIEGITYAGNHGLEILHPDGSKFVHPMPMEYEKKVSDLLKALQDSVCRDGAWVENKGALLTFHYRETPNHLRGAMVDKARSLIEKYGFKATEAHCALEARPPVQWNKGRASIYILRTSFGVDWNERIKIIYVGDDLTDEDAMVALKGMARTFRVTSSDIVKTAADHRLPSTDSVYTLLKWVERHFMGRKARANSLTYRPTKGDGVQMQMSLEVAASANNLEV", "assay": "dephosphorylation; trehalose released determined with trehalase and glucose assay kit", "conditions": "0.5 mM T6P; 5 mM MgCl2; PBS-type phosphate buffer pH 7.4; 30 °C; 0.02 nmol enzyme in 30 μl"}, "[4]": {"target": "T4, OtsB (Escherichia coli, UniProt P31678)", "T4 construct": "N-terminal His-tag (pET28a), E. coli BL21(DE3), Ni-NTA", "T4 sequence (P31678 whole entry)": "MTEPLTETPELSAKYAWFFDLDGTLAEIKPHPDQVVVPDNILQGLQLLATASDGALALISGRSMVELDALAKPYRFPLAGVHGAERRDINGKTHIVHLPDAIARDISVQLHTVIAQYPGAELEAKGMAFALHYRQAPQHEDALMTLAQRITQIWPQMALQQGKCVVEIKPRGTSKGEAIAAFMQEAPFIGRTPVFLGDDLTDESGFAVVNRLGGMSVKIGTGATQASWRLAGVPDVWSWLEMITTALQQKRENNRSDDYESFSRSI", "assay": "dephosphorylation; trehalose released determined with trehalase and glucose assay kit", "conditions": "0.5 mM T6P; 5 mM MgCl2; PBS-type phosphate buffer pH 7.4; 30 °C; 0.02 nmol enzyme in 30 μl"}},
  "data": [
    {"compound": "OC[C@H]1O[C@H](O[C@H]2O[C@H](CO)[C@@H](O)[C@H](O)[C@H]2O)[C@H](O)[C@@H](O)[C@@H]1O", "note": "[trehalose]", "values": [
      {"measurement": "trehalose hydrolysis; glucose released determined with glucose assay kit", "setting": "[1]", "result": "The recombinant cTreh exhibited a specific breakdown of trehalose to produce glucose in vitro"}
    ]},
    {"compound": "O=P(O)(O)OC[C@H]1O[C@H](O[C@H]2O[C@H](CO)[C@@H](O)[C@H](O)[C@H]2O)[C@H](O)[C@@H](O)[C@@H]1O", "note": "[trehalose-6-phosphate]", "values": [
      {"measurement": "dephosphorylation; trehalose released determined with trehalase and glucose assa", "setting": "[2]", "result": "recombinant Tps1-TPP and CG5171, but not CG5177, dephosphorylated T6P under our experimental conditions"},
      {"measurement": "dephosphorylation; trehalose released determined with trehalase and glucose assa", "setting": "[3]", "result": "recombinant Tps1-TPP and CG5171, but not CG5177, dephosphorylated T6P under our experimental conditions"},
      {"measurement": "dephosphorylation; trehalose released determined with trehalase and glucose assa", "setting": "[4]", "result": "Tps1-TPP showed a lower activity than CG5171 and OtsB in vitro"}
    ]}
  ]
}
